Starred links: 1 amine or outer side, 2 acyl side, 3 side chain; linkers in the order of their positions; H or OH if unused. Positions of bridges follow the written chain, without caps; N, C: chain ends. Non-standard residues stand in square brackets, D forms with d. Residues, ends and D or L forms follow the SMILES beside them. *: point of attachment. hPhe(3-Cl-4-CF3) = N[C@@H](CCc1ccc(C(F)(F)F)c(Cl)c1)C(=O)O; hPhe(3-F,4-CF3) = N[C@@H](CCc1ccc(C(F)(F)F)c(F)c1)C(=O)O; NMePhe(4-CF3) = CN[C@@H](Cc1ccc(C(F)(F)F)cc1)C(=O)O; hPhe(4-CF3) = N[C@@H](CCc1ccc(C(F)(F)F)cc1)C(=O)O; NMeAla(4-thiazolyl) = CN[C@@H](Cc1cscn1)C(=O)O; NMePhe(4-Cl) = CN[C@@H](Cc1ccc(Cl)cc1)C(=O)O; NMePhe(3-F) = CN[C@@H](Cc1cccc(F)c1)C(=O)O; Oic = O=C(O)[C@@H]1C[C@@H]2CCCC[C@@H]2N1; Phe(3-Cl) = N[C@@H](Cc1cccc(Cl)c1)C(=O)O; X22 = O=C([C@@H]1Cc2ccccc2N1[*:1])[*:2]; NMeGly(cPent) = CN[C@H](C(=O)O)C1CCCC1; Phe(3-I) = N[C@@H](Cc1cccc(I)c1)C(=O)O; NMeCha = CN[C@@H](CC1CCCCC1)C(=O)O; NMeChg = CN[C@H](C(=O)O)C1CCCCC1; NMeF = CN[C@@H](Cc1ccccc1)C(=O)O; N(CH2CH2)2CF2 = FC1(F)CCN(*)CC1; NMeD = CN[C@@H](CC(=O)O)C(=O)O; NMeL = CN[C@@H](CC(C)C)C(=O)O; NMeV = CN[C@H](C(=O)O)C(C)C; d(β3hA) = C[C@@H](N)CC(=O)O; Azetidin(1-yl) = C1CN(*)C1; NMeS = CN[C@@H](CO)C(=O)O; NMeA = CN[C@@H](C)C(=O)O; NMeAib = CNC(C)(C)C(=O)O; Nle = CCCC[C@H](N)C(=O)O; Piperidide = C1CCN(*)CC1; Pyrrolidide = C1CCN(*)C1; dNMeA = CN[C@H](C)C(=O)O; Ac5c = NC1(C(=O)O)CCCC1; Aze = O=C(O)[C@@H]1CCN1; Nva = CCC[C@H](N)C(=O)O; CH2CMe2OH = CC(C)(O)C*; Aib = CC(C)(N)C(=O)O; X47 = Fc1cncc(C*)c1; NEtG = CCNCC(=O)O; Sar = CNCC(=O)O
Target: T1, Kras and SOS1 (biotin-tagged human Kras loaded with GDP, His-tagged human SOS1) (Homo sapiens, UniProt P01116, G12D)
T1 construct: made in house; host or cells: E. coli (stated for Kras only)
T1 sequence (P01116 1-188 isoform P01116-2 G12D): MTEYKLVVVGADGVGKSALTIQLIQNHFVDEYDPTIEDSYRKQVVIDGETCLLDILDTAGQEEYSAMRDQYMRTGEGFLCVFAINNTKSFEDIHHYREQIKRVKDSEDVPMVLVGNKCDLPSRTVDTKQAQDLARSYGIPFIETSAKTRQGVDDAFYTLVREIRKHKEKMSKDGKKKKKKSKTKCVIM
Experiment: Protein-protein interaction inhibition between Kras and SOS1 (KrasGl2D-SOS PPI) using AlphaScreen
Type: binding
Details: AlphaScreen; biotin-tagged human Kras loaded with GDP, His-tagged human SOS1; read-out: KRAS G12D-SOS PPI IC50
How it was run: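 Read-out is acceptor-bead light at 520-620 nm, arising when 680 nm-irradiated nickel donor beads pass singlet oxygen to streptavidin acceptors. The bead pair links His-tagged SOS1 with biotin-tagged, GDP-bound Kras from E. coli.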

Row | SMILES | IC50
1 | CC[C@H](C)[C@@H]1NC(=O)[C@H](C)N(C)C(=O)C[C@@H](C)NC(=O)[C@H](C2CCCC2)N(C)C(=O)C2(CCCC2)NC(=O)[C@@H]2CCCN2C(=O)[C@H](CCc2ccc(C(F)(F)F)c(Cl)c2)NC(=O)[C@@H](C)N(C)C(=O)[C@H](Cc2ccccc2)N(C)C(=O)CN(C)C(=O)CN(C)C1=O [Compound 482] (cyclo([Ac5c][NMeGly(cPent)][d(β3hA)][NMeA]I[Sar][Sar][NMeF][dNMeA][hPhe(3-Cl-4-CF3)]P)) | 170 nM
2 | CCCC[C@@H]1NC(=O)[C@H](Cc2cccc(I)c2)NC(=O)CN(C)C(=O)[C@H](Cc2ccc(Cl)cc2)N(C)C(=O)CN(C)C(=O)CN(C)C(=O)[C@H]([C@@H](C)CC)NC(=O)[C@H](CC(C)C)N(C)C(=O)C[C@@H](C(=O)N2CCCCC2)N(C)C(=O)[C@H](CC(C)C)NC(=O)[C@H](Cc2cccc(F)c2)N(C)C1=O [Compound 483] ([NMeL]I[Sar][Sar][NMePhe(4-Cl)][Sar][Phe(3-I)][Nle][NMePhe(3-F)]L[NMeD]-Piperidide; lactam N-11) | 17 nM
3 | CC[C@H](C)[C@@H]1NC(=O)[C@H](CC(C)C)N(C)C(=O)C[C@@H](C(=O)N2CCCCC2)N(C)C(=O)[C@H](C(C)C)N(C)C(=O)[C@@H](C)NC(=O)[C@H](CC(=O)N2CCC(F)(F)CC2)N(C)C(=O)[C@H](CCc2ccc(C(F)(F)F)c(Cl)c2)NC(=O)CN(C)C(=O)[C@H](CC2CCCCC2)N(C)C(=O)CN(C)C(=O)CN(C)C1=O [Compound 493] ([NMeL]I[Sar][Sar][NMeCha][Sar][hPhe(3-Cl-4-CF3)][NMeD](N(CH2CH2)2CF2)[dA][NMeV][NMeD]-Piperidide; lactam N-11) | 300 nM
4 | CCC[C@@H]1NC(=O)[C@H](CC(C)C)N(C)C(=O)C[C@@H](C(=O)N2CCCCC2)N(C)C(=O)[C@H](C2CCCCC2)N(C)C(=O)C2(CCCC2)NC(=O)[C@@H]2CCCN2C(=O)[C@H](CCc2ccc(C(F)(F)F)c(Cl)c2)NC(=O)CN(C)C(=O)[C@H](CC2CCCCC2)N(C)C(=O)CN(C)C(=O)CN(C)C1=O [Compound 495] ([NMeL][Nva][Sar][Sar][NMeCha][Sar][hPhe(3-Cl-4-CF3)]P[Ac5c][NMeChg][NMeD]-Piperidide; lactam N-11) | 3.2 nM
5 | CCCC[C@@H]1NC(=O)[C@H](Cc2cccc(I)c2)NC(=O)CN(C)C(=O)[C@H](Cc2ccc(Cl)cc2)N(C)C(=O)CN(C)C(=O)CN(C)C(=O)[C@H]([C@@H](C)CC)NC(=O)[C@H](CC(C)C)N(C)C(=O)C[C@@H](C(=O)N2CCCCC2)N(C)C(=O)[C@H](CC(C)C)NC(=O)[C@H](Cc2ccc(C(F)(F)F)cc2)N(C)C1=O [Compound 498] ([NMeL]I[Sar][Sar][NMePhe(4-Cl)][Sar][Phe(3-I)][Nle][NMePhe(4-CF3)]L[NMeD]-Piperidide; lactam N-11) | 49 nM
6 | CC[C@H](C)[C@@H]1NC(=O)[C@H](C)N(C)C(=O)C[C@@H](C(=O)N2CCCC2)NC(=O)[C@H](CC(C)C)NC(=O)[C@H](Cc2ccccc2)N(C)C(=O)[C@H](CC(C)C)NC(=O)[C@H](Cc2cccc(Cl)c2)NC(=O)CN(C)C(=O)[C@H](Cc2ccc(Cl)cc2)N(C)C(=O)CN(C)C(=O)CN(C)C1=O [Compound 499] ([NMeA]I[Sar][Sar][NMePhe(4-Cl)][Sar][Phe(3-Cl)]L[NMeF]LD-Pyrrolidide; lactam N-11) | 85 nM
7 | CC[C@H](C)[C@@H]1NC(=O)[C@H](CC(C)C)N(C)C(=O)C[C@@H](C(=O)N2CCCCC2)N(C)C(=O)[C@H](C2CCCCC2)N(C)C(=O)C2(CCCC2)NC(=O)[C@H](Cc2cscn2)N(C)C(=O)[C@H](CCc2ccc(C(F)(F)F)c(Cl)c2)NC(=O)CN(C)C(=O)[C@H](CC2CCCCC2)N(C)C(=O)CN(C)C(=O)CN(C)C1=O [Compound 500] ([NMeL]I[Sar][Sar][NMeCha][Sar][hPhe(3-Cl-4-CF3)][NMeAla(4-thiazolyl)][Ac5c][NMeChg][NMeD]-Piperidide; lactam N-11) | 4.8 nM
8 | CC[C@H](C)[C@@H]1NC(=O)[C@H](C)N(C)C(=O)C[C@@H](C(=O)N2CCCC2)NC(=O)[C@H](CC(C)C)N(C)C(=O)[C@H](Cc2ccccc2)N(C)C(=O)[C@H](COCC(C)(C)O)NC(=O)[C@H](CCc2ccc(C(F)(F)F)cc2)NC(=O)CN(C)C(=O)[C@H](Cc2ccc(Cl)cc2)N(C)C(=O)CN(C)C(=O)CN(C)C1=O [Compound 502] ([NMeA]I[Sar][Sar][NMePhe(4-Cl)][Sar][hPhe(4-CF3)]S(CH2CMe2OH)[NMeF][NMeL]D-Pyrrolidide; lactam N-11) | 47 nM
9 | CC[C@H](C)[C@@H]1NC(=O)[C@H](CC(C)C)N(C)C(=O)C[C@@H](C)NC(=O)[C@H](C(C)C)N(C)C(=O)C2(CCCC2)NC(=O)[C@@H]2CCCN2C(=O)[C@H](CCc2ccc(C(F)(F)F)c(Cl)c2)NC(=O)CN(C)C(=O)[C@H](CC2CCCCC2)N(C)C(=O)CN(CC)C(=O)CN(C)C1=O [Compound 504] (cyclo([Ac5c][NMeV][d(β3hA)][NMeL]I[Sar][NEtG][NMeCha][Sar][hPhe(3-Cl-4-CF3)]P)) | 53 nM
10 | CC[C@H](C)[C@@H]1NC(=O)[C@H](C)N(C)C(=O)C[C@@H](C(=O)N2CCCCC2)N(C)C(=O)[C@H](C(C)C)N(C)C(=O)C(C)(C)N(C)C(=O)[C@@H]2CCCN2C(=O)[C@H](CCc2ccc(C(F)(F)F)c(Cl)c2)NC(=O)CN(C)C(=O)[C@H](CC2CCCCC2)N(C)C(=O)CN(C)C(=O)CN(C)C1=O [Compound 507] ([NMeA]I[Sar][Sar][NMeCha][Sar][hPhe(3-Cl-4-CF3)]P[NMeAib][NMeV][NMeD]-Piperidide; lactam N-11) | 0.48 nM
11 | CC[C@H](C)[C@@H]1NC(=O)[C@H](CC(C)C)N(C)C(=O)C[C@@H](C(=O)N2CCCC2)NC(=O)[C@H](C(C)C)N(C)C(=O)C2(CCCC2)NC(=O)[C@@H]2CCCN2C(=O)[C@H](CCc2ccc(C(F)(F)F)c(Cl)c2)NC(=O)CN(C)C(=O)[C@H](CC2CCCCC2)N(C)C(=O)CN(C)C(=O)CN(C)C1=O [Compound 508] ([NMeL]I[Sar][Sar][NMeCha][Sar][hPhe(3-Cl-4-CF3)]P[Ac5c][NMeV]D-Pyrrolidide; lactam N-11) | 12 nM
12 | CC[C@H](C)[C@@H]1NC(=O)[C@H](C)N(C)C(=O)C[C@@H](C(=O)N2CCCC2)NC(=O)[C@H](CC(C)C)N(C)C(=O)[C@H](Cc2ccccc2)N(C)C(=O)[C@H](COCc2cncc(F)c2)NC(=O)[C@H](CCc2ccc(C(F)(F)F)cc2)NC(=O)CN(C)C(=O)[C@H](Cc2ccc(Cl)cc2)N(C)C(=O)CN(C)C(=O)CN(C)C1=O [Compound 513] ([NMeA]I[Sar][Sar][NMePhe(4-Cl)][Sar][hPhe(4-CF3)]S(X47)[NMeF][NMeL]D-Pyrrolidide; lactam N-11) | 46 nM
13 | CC[C@H](C)[C@@H]1NC(=O)[C@H](CC(C)C)N(C)C(=O)C[C@@H](C(=O)N2CCCCC2)N(C)C(=O)[C@H](C2CCCCC2)N(C)C(=O)C2(CCCC2)NC(=O)[C@@H]2Cc3ccccc3N2C(=O)[C@H](CCc2ccc(C(F)(F)F)c(Cl)c2)NC(=O)CN(C)C(=O)[C@H](CC2CCCCC2)N(C)C(=O)CN(C)C(=O)CN(C)C1=O [Compound 514] ([NMeL]I[Sar][Sar][NMeCha][Sar][hPhe(3-Cl-4-CF3)][X22][Ac5c][NMeChg][NMeD]-Piperidide; lactam N-11) | 14 nM
14 | CC[C@H](C)[C@@H]1NC(=O)[C@H](CC(C)C)N(C)C(=O)C[C@@H](C(=O)N2CCC2)N(C)C(=O)[C@H](C2CCCC2)N(C)C(=O)C2(CCCC2)NC(=O)[C@@H]2CCCN2C(=O)[C@H](CCc2ccc(C(F)(F)F)c(Cl)c2)NC(=O)CN(C)C(=O)[C@H](CC2CCCCC2)N(C)C(=O)[C@@H]2CCN2C(=O)[C@H](C)N(C)C1=O [Compound 515] ([NMeL]I[NMeA][Aze][NMeCha][Sar][hPhe(3-Cl-4-CF3)]P[Ac5c][NMeGly(cPent)][NMeD]-{Azetidin(1-yl)}; lactam N-11) | 0.55 nM
15 | CC[C@H](C)[C@@H]1NC(=O)[C@H](C)N(C)C(=O)C[C@@H](C)NC(=O)[C@H](C(C)C)N(C)C(=O)C2(CCCC2)NC(=O)[C@@H]2CCCN2C(=O)[C@H](CCc2ccc(C(F)(F)F)c(Cl)c2)NC(=O)[C@@H](C)N(C)C(=O)[C@H](CC2CCCCC2)N(C)C(=O)[C@@H]2CCCN2C(=O)CN(C)C1=O [Compound 516] (cyclo([Ac5c][NMeV][d(β3hA)][NMeA]I[Sar]P[NMeCha][dNMeA][hPhe(3-Cl-4-CF3)]P)) | 62 nM
16 | CC[C@H](C)[C@@H]1NC(=O)[C@H](C)N(C)C(=O)C[C@@H](C(=O)N2CCCC2)NC(=O)[C@H](CC(C)C)N(C)C(=O)[C@H](COCc2cncc(F)c2)N(C)C(=O)[C@H](CC(C)C)NC(=O)[C@H](CCc2ccc(C(F)(F)F)cc2)NC(=O)CN(C)C(=O)[C@H](Cc2ccc(Cl)cc2)N(C)C(=O)CN(C)C(=O)CN(C)C1=O [Compound 517] ([NMeA]I[Sar][Sar][NMePhe(4-Cl)][Sar][hPhe(4-CF3)]L[NMeS](X47)[NMeL]D-Pyrrolidide; lactam N-11) | 28 nM
17 | CC[C@H](C)[C@@H]1NC(=O)[C@H](C)N(C)C(=O)C[C@@H](C)NC(=O)[C@H](CC(C)C)N(C)C(=O)C(C)(C)NC(=O)[C@@H]2C[C@@H]3CCCC[C@@H]3N2C(=O)[C@H](CCc2ccc(C(F)(F)F)cc2)NC(=O)CN(C)C(=O)[C@H](Cc2ccc(Cl)cc2)N(C)C(=O)CN(C)C(=O)CN(C)C1=O [Compound 521] (cyclo([Aib][NMeL][d(β3hA)][NMeA]I[Sar][Sar][NMePhe(4-Cl)][Sar][hPhe(4-CF3)][Oic])) | 71 nM
18 | CC[C@H](C)[C@@H]1NC(=O)[C@H](CC(C)C)N(C)C(=O)C[C@@H](C(=O)N2CCCCC2)N(C)C(=O)[C@H](C(C)C)N(C)C(=O)C(C)(C)NC(=O)[C@@H]2CCCN2C(=O)[C@H](CCc2ccc(C(F)(F)F)c(F)c2)NC(=O)CN(C)C(=O)[C@H](CC2CCCCC2)N(C)C(=O)CN(C)C(=O)CN(C)C1=O [Compound 522] ([NMeL]I[Sar][Sar][NMeCha][Sar][hPhe(3-F,4-CF3)]P[Aib][NMeV][NMeD]-Piperidide; lactam N-11) | 5.3 nM
